Measurements published in patent publication US12594282B2, “Use of small molecule compounds in the treatment of diseases mediated by lung epithelial cell injury and/or vascular endothelial cell injury” (Guangzhou Cellprotek Pharmaceutical Co., Ltd., priority 2020, dated 2026).

Tested on: acute hypobaric hypoxia-induced lung injury
Experiment: Acute hypobaric hypoxia-induced lung injury in Macaca fascicularis (HE pathology)
Assay type: in vivo
Details: 7500 meters for 48 hours
Description: Twenty-four healthy male Macaca fascicularis, 6 to 6.5 years-old, weighted 6.5-7.5 kg, were purchased from Kangda Laboratory Animal Center, Gaoyao City, Guangdong, China, in which 17 male Macaca fascicularis were divided into 3 groups, as shown in the following table:
Three Macaca fascicularis housed in the animal room were randomly selected each time. For each animal, 10 ml of blood was collected, and 10 ml of glucose normal saline was injected intravenously, and marked. The animals were then housed in a low-pressure chamber for 1 day to acclimate to the experimental environment. In the acute hypobaric hypoxia group, the altitude was simulated to 3000 meters at a speed of 3 m/s; after the animals stayed in the low-pressure chamber at a simulated altitude of 3000 meters for 30 minutes, 10 ml of blood was taken from each animal and 10 ml of glucose saline was injected intravenously; the altitude was then simulated to 4500 meters at a speed of 3 m/s; after the animals stayed in the low-pressure chamber at a simulated altitude of 4500 meters for 30 minutes, 10 ml of blood was taken from each animal and 10 ml of glucose saline was injected intravenously; the altitude was simulated to 6000 meters at a speed of 3 m/s; after the animals stayed in the low-pressure chamber at a simulated altitude of 6000 meters for 30 minutes, 10 ml of blood was taken from each animal and 10 ml of glucose saline was injected intravenously; the altitude was simulated to 7500 meters at a speed of 2 m/s; after the animals stayed at a simulated altitude of 7500 meters in the low-pressure chamber for 24 hours, the altitude was lowered to 6000 meters at a speed of 3 m/s, and 10 ml of blood was taken from each animal and 10 ml of glucose saline was injected intravenously; the altitude was simulated to 7500 meters at a speed of 2 m/s; after staying at 7500 meters for 48 hours, the altitude was lowered to 6000 meters at a speed of 3 m/s, the animals were anesthetized (0.06 ml/kg ketamine hydrochloride injection, 0.02 ml/kg xylazine hydrochloride injection), and sacrificed by carotid bloodletting, and dissected and subject to sampling, and the samples were then fixed. The Macaca fascicularis in the normobaric normoxia control group were anesthetized (0.06 ml/kg ketamine hydrochloride injection, 0.02 ml/kg xylazine hydrochloride injection) in the plain (an altitude of 352 meters), then sacrificed by carotid bloodletting, and dissected and subject to sampling, and the samples were then fixed. […]

## C[C@@]12CCCC1C1C[C@@H](O)[C@]3(O)C[C@@H](O)CC[C@]3(C)C1CC2 (stereo partly drawn) [YC-6, 5α-androst-3β,5,6β-triol]
100 mg/kg/two days (i.v. solution and i.m. sustained-release formulation)
  alveolar septal thickening caused by acute hypobaric hypoxia: significantly reduced the alveolar septal thickening injury
100 mg/kg/two days
  fibrous hyperplasia of alveolar septa, protein hyaline membrane formation and erythrocyte leakage into the alveolar space: no such obvious changes were observed
  inflammatory infiltration and shedding of damaged lung epithelial cells: no obvious inflammatory infiltration and shedding of damaged lung epithelial cells were observed
  pulmonary vascular congestion and swelling: significantly inhibited pulmonary vascular congestion and swelling
